Results published in PubChem BioAssay AID1745844 (Carcinogenic Potency Database (CPDB), 2022).

System: rodent lifetime carcinogenesis bioassay, tumor incidence TD50
Assay: carcinogenic potency in animals, long-term in vivo studies, CPDB compilation (AID 1745844)
Conditions: by gavage

`ClCC(Cl)CCl` gave a TD50 (mouse, strain B6C3F1, females, site: Harderian gland, lesion: adenoma + adenoma, bilateral, dosed 88 weeks, study length 104 weeks) of 7.05 mg/kg/day, a TD50 (mouse, strain B6C3F1, females, site: all sites, lesion: histiocytic sarcoma + malignant lymphoma, histiocytic type + malignant lymphoma, mixed type + malignant lymphoma, lymphocytic, dosed 88 weeks, study length 104 weeks) of 8.64 mg/kg/day and a TD50 (mouse, strain B6C3F1, females, site: all sites, lesion: malignant lymphoma, histiocytic type + malignant lymphoma, mixed type + malignant lymphoma, lymphocytic type + malignant lymph, dosed 88 weeks, study length 104 weeks) of 7.08 mg/kg/day. It also gave a TD50 (mouse, strain B6C3F1, females, site: any site (literature study), lesion: several types, types named in the paper, dosed 88 weeks, study length 104 weeks) of 0.806 mg/kg/day, a TD50 (mouse, strain B6C3F1, females, site: forestomach + Harderian gland + liver + palate + pharynx + uterus, lesion: squamous-cell carcinoma + squamous-cell papilloma + adenoma + adenoma, bilateral + hepatocellular adenoma + hepatocellular carcino, dosed 88 weeks, study length 104 weeks) of 0.826 mg/kg/day and a TD50 (mouse, strain B6C3F1, females, site: forestomach, lesion: squamous-cell carcinoma + squamous-cell papilloma, dosed 88 weeks, study length 104 weeks) of 0.828 mg/kg/day. For the same molecule, the TD50 (mouse, strain B6C3F1, females, site: forestomach, lesion: squamous-cell carcinoma, dosed 88 weeks, study length 104 weeks) was 0.97 mg/kg/day, the TD50 (mouse, strain B6C3F1, females, site: forestomach, lesion: squamous-cell papilloma, dosed 88 weeks, study length 104 weeks) was 1.64 mg/kg/day and the TD50 (mouse, strain B6C3F1, females, site: liver, lesion: hepatocellular adenoma + hepatoblastoma + hepatocellular carcinoma, dosed 88 weeks, study length 104 weeks) was 2.93 mg/kg/day. The TD50 (mouse, strain B6C3F1, females, site: liver, lesion: hepatocellular adenoma + hepatocellular carcinoma, dosed 88 weeks, study length 104 weeks) was 2.93 mg/kg/day, the TD50 (mouse, strain B6C3F1, females, site: liver, lesion: hepatocellular adenoma, dosed 88 weeks, study length 104 weeks) was 3.33 mg/kg/day and the TD50 (mouse, strain B6C3F1, females, site: liver, lesion: hepatocellular carcinoma, dosed 88 weeks, study length 104 weeks) was 28.7 mg/kg/day. It also gave a TD50 (mouse, strain B6C3F1, females, site: lung, lesion: alveolar/bronchiolar adenoma + alveolar/bronchiolar carcinoma, dosed 88 weeks, study length 104 weeks) of 14.3 mg/kg/day, a TD50 (mouse, strain B6C3F1, females, site: lung, lesion: alveolar/bronchiolar adenoma, dosed 88 weeks, study length 104 weeks) of 14.6 mg/kg/day and a TD50 (mouse, strain B6C3F1, females, site: palate + pharynx + tongue, lesion: squamous-cell carcinoma + squamous-cell papilloma, dosed 88 weeks, study length 104 weeks) of 47 mg/kg/day. For the same molecule, the TD50 (mouse, strain B6C3F1, females, site: palate + pharynx, lesion: squamous-cell carcinoma, dosed 88 weeks, study length 104 weeks) was 154 mg/kg/day, the TD50 (mouse, strain B6C3F1, females, site: uterus, lesion: endometrial stromal polyp, dosed 88 weeks, study length 104 weeks) was 22.9 mg/kg/day and the TD50 (mouse, strain B6C3F1, females, site: uterus, lesion: endometrium, adenocarcinoma, dosed 88 weeks, study length 104 weeks) was 8.47 mg/kg/day. The TD50 (mouse, strain B6C3F1, females, site: uterus, lesion: endometrium, adenoma + endometrium, adenocarcinoma, dosed 88 weeks, study length 104 weeks) was 6.62 mg/kg/day, the TD50 (mouse, strain B6C3F1, females, site: uterus, lesion: endometrium, adenoma, dosed 88 weeks, study length 104 weeks) was 34.9 mg/kg/day and the TD50 (mouse, strain B6C3F1, males, site: Harderian gland, lesion: adenoma, dosed 90 weeks, study length 104 weeks) was 13.7 mg/kg/day. The TD50 (mouse, strain B6C3F1, males, site: any site (literature study), lesion: several types, types named in the paper, dosed 90 weeks, study length 104 weeks) was 1.06 mg/kg/day, the TD50 (mouse, strain B6C3F1, males, site: forestomach + Harderian gland + liver, lesion: squamous-cell carcinoma + squamous-cell papilloma + adenoma + hepatocellular adenoma + hepatocellular carcinoma, dosed 90 weeks, study length 104 weeks) was 0.996 mg/kg/day and the TD50 (mouse, strain B6C3F1, males, site: forestomach, lesion: squamous-cell carcinoma + squamous-cell papilloma, dosed 90 weeks, study length 104 weeks) was 0.928 mg/kg/day. It also gave a TD50 (mouse, strain B6C3F1, males, site: forestomach, lesion: squamous-cell carcinoma, dosed 90 weeks, study length 104 weeks) of 1.34 mg/kg/day, a TD50 (mouse, strain B6C3F1, males, site: forestomach, lesion: squamous-cell papilloma, dosed 90 weeks, study length 104 weeks) of 1.63 mg/kg/day and a TD50 (mouse, strain B6C3F1, males, site: liver, lesion: hepatocellular adenoma + hepatoblastoma + hepatocellular carcinoma, dosed 90 weeks, study length 104 weeks) of 2.13 mg/kg/day. For the same molecule, the TD50 (mouse, strain B6C3F1, males, site: liver, lesion: hepatocellular adenoma + hepatocellular carcinoma, dosed 90 weeks, study length 104 weeks) was 2.13 mg/kg/day, the TD50 (mouse, strain B6C3F1, males, site: liver, lesion: hepatocellular adenoma, dosed 90 weeks, study length 104 weeks) was 2.87 mg/kg/day and the TD50 (mouse, strain B6C3F1, males, site: liver, lesion: hepatocellular carcinoma, dosed 90 weeks, study length 104 weeks) was 6.28 mg/kg/day. The TD50 (mouse, strain B6C3F1, males, site: lung, lesion: alveolar/bronchiolar adenoma + alveolar/bronchiolar carcinoma, dosed 90 weeks, study length 104 weeks) was 9.32 mg/kg/day, the TD50 (mouse, strain B6C3F1, males, site: lung, lesion: alveolar/bronchiolar adenoma, dosed 90 weeks, study length 104 weeks) was 11.2 mg/kg/day and the TD50 (mouse, strain B6C3F1, males, site: tongue, lesion: squamous-cell papilloma, dosed 90 weeks, study length 104 weeks) was 454 mg/kg/day. It also gave a TD50 (rat, strain Fischer 344, females, site: Zymbal's gland, lesion: carcinoma, dosed 91 weeks, study length 105 weeks) of 59 mg/kg/day, a TD50 (rat, strain Fischer 344, females, site: all sites, lesion: mononuclear-cell leukemia, dosed 91 weeks, study length 105 weeks) of 7.11 mg/kg/day and a TD50 (rat, strain Fischer 344, females, site: any site (literature study), lesion: several types, types named in the paper, dosed 91 weeks, study length 105 weeks) of 1.02 mg/kg/day. It also gave a TD50 (rat, strain Fischer 344, females, site: clitoral gland + forestomach + mammary gland + palate + pharynx + tongue + Zymbal's gland, lesion: adenoma + adenoma, bilateral + carcinoma + carcinoma, bilateral + squamous-cell carcinoma + squamous-cell papilloma + adenocarcinoma, dosed 91 weeks, study length 105 weeks) of 1.07 mg/kg/day, a TD50 (rat, strain Fischer 344, females, site: clitoral gland, lesion: adenoma + adenoma, bilateral + carcinoma + carcinoma, bilateral, dosed 91 weeks, study length 105 weeks) of 3.58 mg/kg/day and a TD50 (rat, strain Fischer 344, females, site: clitoral gland, lesion: adenoma + adenoma, bilateral, dosed 91 weeks, study length 105 weeks) of 4.04 mg/kg/day. The TD50 (rat, strain Fischer 344, females, site: clitoral gland, lesion: carcinoma + carcinoma, bilateral, dosed 91 weeks, study length 105 weeks) was 49.5 mg/kg/day, the TD50 (rat, strain Fischer 344, females, site: colon + jejunum, lesion: adenocarcinoma, dosed 91 weeks, study length 105 weeks) was 78.4 mg/kg/day and the TD50 (rat, strain Fischer 344, females, site: forestomach, lesion: squamous-cell carcinoma + squamous-cell papilloma, dosed 91 weeks, study length 105 weeks) was 1.64 mg/kg/day. The TD50 (rat, strain Fischer 344, females, site: forestomach, lesion: squamous-cell carcinoma, dosed 91 weeks, study length 105 weeks) was 7.77 mg/kg/day, the TD50 (rat, strain Fischer 344, females, site: forestomach, lesion: squamous-cell papilloma, dosed 91 weeks, study length 105 weeks) was 1.94 mg/kg/day and the TD50 (rat, strain Fischer 344, females, site: liver, lesion: hepatocellular adenoma + hepatoblastoma + hepatocellular carcinoma, dosed 91 weeks, study length 105 weeks) was 81.4 mg/kg/day. It also gave a TD50 (rat, strain Fischer 344, females, site: mammary gland, lesion: adenocarcinoma + adenoma + fibroadenoma, dosed 91 weeks, study length 105 weeks) of 1.98 mg/kg/day, a TD50 (rat, strain Fischer 344, females, site: mammary gland, lesion: adenocarcinoma + adenoma, dosed 91 weeks, study length 105 weeks) of 5.5 mg/kg/day and a TD50 (rat, strain Fischer 344, females, site: mammary gland, lesion: adenocarcinoma, dosed 91 weeks, study length 105 weeks) of 5.91 mg/kg/day. It also gave a TD50 (rat, strain Fischer 344, females, site: mammary gland, lesion: adenoma + fibroadenoma, dosed 91 weeks, study length 105 weeks) of 3.32 mg/kg/day.
